Measurements: US4698352A, “4-oxo-1,4-dihydronicotinic acid derivatives, salts thereof, and antibacterial agents containing the same” (Toyama Chemical Co., Ltd., priority 1982, dated 1987)
Converted amounts (≈) assume the structure as drawn. Like-named read-outs stand apart in the source and are kept apart here.

Key:
Assay in all cases: Antibacterial activity (MIC), agar dilution
Type in all cases: cell-based
[1] = tested on: E. coli GN5482**; settings: Escherichia coli, 20 h; E. coli GN5482, cephalospolinase-producing; 10^6 cells per ml; read-out: MIC
From the text: (§1) The amount of bacteria inoculated was 10^4 cells per plate (10^6 cells per ml).
(§2) ** Cephalospolinase-producing bacteria

[2] = tested on: Pro. vulgaris GN76**; settings: Proteus vulgaris, 20 h; Pro. vulgaris GN76, cephalospolinase-producing; 10^6 cells per ml; read-out: MIC
From the text: as §1, §2

[3] = tested on: Ps. aeruginosa GN918**; settings: Pseudomonas aeruginosa, Ps. aeruginosa GN918, cephalospolinase-producing, 10^6 cells per ml
From the text: as §1, §2

[4] = tested on: Kl. pneumoniae Y-50; settings: Klebsiella pneumoniae, Y50, 20 h, 10^6 cells per ml, 37° C., read-out: MIC
From the text: as §1

[5] = tested on: E. coli TK-111; settings: Escherichia coli, TK111, 20 h, E. coli TK-111; 10^6 cells per ml; 37° C., 20 hours; read-out: MIC
From the text: as §1

[6] = tested on: Ps. aeruginosa S-68; settings: Pseudomonas aeruginosa
From the text: as §1

[7] = tested on: Ent. cloacae IID977; settings: Enterobacter cloacae, IID977, 20 h
From the text: as §1

[8] = tested on: Kl. pneumoniae Y-41; settings: Klebsiella pneumoniae, Y41, 10^6 cells per ml, 37° C., 20 hours, read-out: MIC
From the text: as §1

[9] = tested on: Pro. morganii T-216; settings: Morganella morganii, 37° C.
From the text: as §1

[10] = tested on: Pro. vulgaris GN3027; settings: Proteus vulgaris, GN3027, 20 h
From the text: as §1

[11] = tested on: St. aureus FDA209P; settings: Staphylococcus aureus, FDA209P, 20 h
From the text: as §1

[12] = tested on: Pro. mirabilis T-111; settings: Proteus mirabilis, 37° C.
From the text: as §1

[13] = tested on: Aci. antitratus A-6; settings: 20 h, Aci. antitratus A-6; 10^6 cells per ml; 37° C., 20 hours; read-out: MIC
From the text: as §1

[14] = tested on: Ps. aeruginosa IFO3445; settings: Pseudomonas aeruginosa; Ps. aeruginosa IFO3445; 10^6 cells per ml; 37° C., 20 hours; read-out: MIC
From the text: as §1

[15] = tested on: E. coli NIHJ JC-2; settings: Escherichia coli, NIHJJC2, 20 h
From the text: as §1

[16] = tested on: St. aureus F-137*; settings: Staphylococcus aureus, 20 h
From the text: as §1
(§3) * Penicillinase-producing bacteria

[17] = tested on: E. coli TK-3*; settings: Escherichia coli, 20 h
From the text: as §1, §3

[18] = tested on: Kl. pneumoniae Y-4*; settings: Klebsiella pneumoniae, 20 h, Kl. pneumoniae Y-4, penicillinase-producing; 10^6 cells per ml; read-out: MIC
From the text: as §1, §3

[19] = tested on: Ps. aeruginosa GN3379*; settings: Pseudomonas aeruginosa, 20 h; Ps. aeruginosa GN3379, penicillinase-producing; 10^6 cells per ml; read-out: MIC
From the text: as §1, §3

[20] = S68, Ps. aeruginosa S-68, 10^6 cells per ml, 37° C., 20 hours, read-out: MIC
[21] = Pro. vulgaris GN3027, 10^6 cells per ml, 37° C., 20 hours, read-out: MIC
[22] = E. coli NIHJ JC-2, 10^6 cells per ml, 37° C., 20 hours, read-out: MIC
[23] = Ent. cloacae IID977, 10^6 cells per ml, 37° C., 20 hours, read-out: MIC
[24] = St. aureus FDA209P, 10^6 cells per ml, 37° C., 20 hours, read-out: MIC
[25] = St. aureus F-137, penicillinase-producing, 10^6 cells per ml, read-out: MIC
[26] = E. coli TK-3, penicillinase-producing, 10^6 cells per ml, read-out: MIC
[27] = T216, 10^6 cells per ml, 20 hours, read-out: MIC
[28] = T111, 10^6 cells per ml, 20 hours, read-out: MIC

Structure (SMILES) | MIC [1] [µg/mL] | MIC [2] [µg/mL] | MIC ([3]; 20 h, read-out: MIC) [µg/mL] | MIC [4] [µg/mL] | MIC [5] [µg/mL] | MIC [6, 20] [µg/mL] | MIC [8] [µg/mL] | MIC ([9]; T216, 20 h, 10^6 cells per ml) [µg/mL] | MIC [10, 21] [µg/mL] | MIC ([12]; T111, 20 h, 10^6 cells per ml) [µg/mL] | MIC [13] [µg/mL] | MIC [14] [µg/mL] | MIC [15, 22] [µg/mL] | MIC [18] [µg/mL] | MIC [19] [µg/mL] | MIC [7, 23] [µg/mL] | MIC [11, 24] [µg/mL] | MIC [16, 25] [µg/mL] | MIC [17, 26] [µg/mL] | MIC [9, 27] [µg/mL] | other results
Cc1ccc(-c2cc(=O)c(C(=O)O)cn2-c2ccc(F)cc2)s1 | 0.2 (≈ 0.607 µM) | 1.56 (≈ 4.74 µM) | 50 (≈ 152 µM) | 3.13 (≈ 9.5 µM) | 0.78 (≈ 2.37 µM) | 25 (≈ 75.9 µM) | 6.25 (≈ 19 µM) | 3.13 (≈ 9.5 µM) | 0.2 (≈ 0.607 µM) | 6.25 (≈ 19 µM) | 1.56 (≈ 4.74 µM) | 50 (≈ 152 µM) | 1.56 (≈ 4.74 µM) | 12.5 (≈ 38 µM) | 25 (≈ 75.9 µM) | – | – | – | – | – | MIC [7]: 3.13 µg/mL (≈ 9.5 µM); MIC [11]: 3.13 µg/mL (≈ 9.5 µM); MIC [16]: 3.13 µg/mL (≈ 9.5 µM); MIC [17]: 3.13 µg/mL (≈ 9.5 µM)
O=C(O)c1cn(-c2ccc(O)cc2F)c(-c2ccc(N3CCOCC3)cc2)cc1=O | 0.39 (≈ 0.95 µM) | 6.25 (≈ 15.2 µM) | – | 1.56 (≈ 3.8 µM) | 0.39 (≈ 0.95 µM) | 25 (≈ 60.9 µM) | 12.5 (≈ 30.5 µM) | 12.5 (≈ 30.5 µM) | – | 12.5 (≈ 30.5 µM) | 6.25 (≈ 15.2 µM) | 100 (≈ 244 µM) | – | 25 (≈ 60.9 µM) | 50 (≈ 122 µM) | 6.25 (≈ 15.2 µM) | 0.78 (≈ 1.9 µM) | 0.78 (≈ 1.9 µM) | 3.13 (≈ 7.63 µM) | – | MIC ([3]; GN918, 20 h): 12.5 µg/mL (≈ 30.5 µM); MIC [10]: 1.56 µg/mL (≈ 3.8 µM); MIC [15]: 1.56 µg/mL (≈ 3.8 µM)
Cc1cc(O)ccc1-n1cc(C(=O)O)c(=O)cc1-c1ccccc1 | ≤ 0.05 | 0.2 (≈ 0.622 µM) | – | 0.1 (≈ 0.311 µM) | 0.1 (≈ 0.311 µM) | 3.13 (≈ 9.74 µM) | 0.78 (≈ 2.43 µM) | – | ≤ 0.05 | – | 0.78 (≈ 2.43 µM) | 6.25 (≈ 19.5 µM) | 0.2 (≈ 0.622 µM) | 1.56 (≈ 4.85 µM) | 12.5 (≈ 38.9 µM) | 0.39 (≈ 1.21 µM) | 0.2 (≈ 0.622 µM) | 0.2 (≈ 0.622 µM) | 0.39 (≈ 1.21 µM) | 0.39 (≈ 1.21 µM) | MIC ([3]; GN918, 20 h): 1.56 µg/mL (≈ 4.85 µM); MIC [12, 28]: 0.78 µg/mL (≈ 2.43 µM)
O=C(O)c1cn(-c2ccc(O)cc2)c(-c2ccc(-c3ccccc3)cc2)cc1=O | ≤ 0.05 | 0.78 (≈ 2.03 µM) | 1.56 (≈ 4.07 µM) | 0.39 (≈ 1.02 µM) | 0.1 (≈ 0.261 µM) | – | 12.5 (≈ 32.6 µM) | – | 0.2 (≈ 0.522 µM) | – | 0.39 (≈ 1.02 µM) | 25 (≈ 65.2 µM) | 0.39 (≈ 1.02 µM) | 12.5 (≈ 32.6 µM) | 100 (≈ 261 µM) | 3.13 (≈ 8.16 µM) | ≤ 0.05 | ≤ 0.05 | 0.78 (≈ 2.03 µM) | 1.56 (≈ 4.07 µM) | MIC ([6]; S68, 20 h): 12.5 µg/mL (≈ 32.6 µM); MIC [12, 28]: 3.13 µg/mL (≈ 8.16 µM)
Cc1cc(O)ccc1-n1cc(C(=O)O)c(=O)cc1-c1ccc2[nH]ccc2c1 | ≤ 0.05 | 0.78 (≈ 2.16 µM) | 3.13 (≈ 8.69 µM) | 0.2 (≈ 0.555 µM) | 0.1 (≈ 0.277 µM) | 6.25 (≈ 17.3 µM) | 0.78 (≈ 2.16 µM) | 1.56 (≈ 4.33 µM) | 0.2 (≈ 0.555 µM) | 1.56 (≈ 4.33 µM) | 3.13 (≈ 8.69 µM) | 6.25 (≈ 17.3 µM) | 0.39 (≈ 1.08 µM) | 1.56 (≈ 4.33 µM) | 25 (≈ 69.4 µM) | 0.78 (≈ 2.16 µM) | 0.1 (≈ 0.277 µM) | 0.1 (≈ 0.277 µM) | 0.39 (≈ 1.08 µM) | – | –
Cc1cc(O)ccc1-n1cc(C(=O)O)c(=O)cc1C1CC2C=CC1C2 (stereo not drawn) | 1.56 (≈ 4.62 µM) | 6.25 (≈ 18.5 µM) | 50 (≈ 148 µM) | 3.13 (≈ 9.28 µM) | 1.56 (≈ 4.62 µM) | > 100 | 25 (≈ 74.1 µM) | – | 0.78 (≈ 2.31 µM) | – | 6.25 (≈ 18.5 µM) | > 100 | – | 25 (≈ 74.1 µM) | > 100 | 12.5 (≈ 37.1 µM) | – | – | 12.5 (≈ 37.1 µM) | 12.5 (≈ 37.1 µM) | MIC [11]: 3.13 µg/mL (≈ 9.28 µM); MIC [12, 28]: 25 µg/mL (≈ 74.1 µM); MIC [15]: 3.13 µg/mL (≈ 9.28 µM); MIC [16]: 3.13 µg/mL (≈ 9.28 µM)
